Measurements as given in patent publication US20160175249A1, “Liposomes Containing Oligopeptide Fragments of Myelin Basic Protein, a Pharmaceutical Composition and a Method for Treatment of Multiple Sclerosis” (LIPOXEN TECHNOLOGIES LIMITED, priority 2009, published 2016).

What was measured:
EAE-induced DA rats = test: EAE-induced DA rat model, paralysis score and mortality (DA-EAE-28-01, Example 12); format: in vivo; details: 54 EAE induced DA rats; daily s.c. injection, 6 total; peptide dose 50 μg (mixtures 150 μg); deaths/N
Description: Each of the seven formulations being evaluated was provided as a lyophilized powder and stored at 4° C. Rehydration of each daily group dose was done with water for injection according to Table 6. MBP peptide formulations were re-suspended in water for injection (Cure Medical) and copaxone (Teva LTD) was diluted with Saline to a final concentration of 150 μg/mL. Each subject animal was administered the test formulation for 6 consecutive days by subcutaneous injection.
9 week old Dark Agouti (DA) female rats (Harlan Laboratories, Inc.), weighing between 125 and 145 grams were used as the test subjects. The health status of the animals used in this study was examined on arrival. Only animals in good health were acclimatized to laboratory conditions and were used in the study. Animals were provided Protein Rodent Diet (Teklad) ad libitum and free access to drinking water. Animals were housed in a controlled environment at between 20° C. and 24° C. with a relative humidity of 30-70% and a 12 hr light/12 hr dark cycle. Animals were randomly assigned to their respective test group. This study was performed following the review by the Committee for Ethical Conduct in the Care and Use of Laboratory Animals of the Assaf Harofeh medical center, Beer Yaakov, Ethical Committee number: 68/2009.
For induction of EAE, rats were intradermally injected at the base of the tail with a total volume of 200 μl of inoculum containing 50 μg of MBP(63-81) (ANASPEC), in saline mixed (1:1) with CFA, (IFA, Sigma) and 1 mg Mt (strain H37 RA; Difco Laboratories, Detroit, Mich.).
The rats were evaluated up daily starting 24 hours after immunization. […]
7-10 days post EAE induction, 54 animals were divided to 9 groups (6 rats in each), and blood was collected from 2 rats of each group before the initiation of the treatment. […] The animals were maintained and evaluated until day 28th post EAE-induction. […]
Animals were observed individually and clinical signs were recorded once daily during all study periods. […] The body weight of each animals was determined daily during all study periods. […]

[1] = system: experimental allergic encephalomyelitis (EAE) in DA rats; test: Treatment of EAE in DA rats with liposomally encapsulated MBP peptides (Example 5); format: in vivo; details: 150 μg per animal daily subdermally days 6-11, score 0-5
Description: To induce experimental allergic encephalomyelitis (EAE) in DA rats having a mass of 220-250 g ([…]), 10 μg of myelin basic protein encephalogenic peptide fragment ARTTHYGSLPQKSQRSQ (SEQ ID NO:4; Anaspec, US) emulsified in Freund's complete adjuvant (Difco, US) at a concentration of 10% (m/v) was subdermally injected into the forepaw. The rats were weighted and monitored for EAE neurological symptoms daily. The EAE symptom profile of each rate was scored according to the following scale: (0)—absence of EAE symptoms; (1)—decrease in tail tonicity; (2)—decrease in righting reflex; (3)—paresis; (4)—full paralysis; and (5)—agony or death. Intermediary symptoms were scored by increasing or decreasing the value by 0.5 units. Six days after EAE induction, animals were randomly distributed into several groups (12 animals each).
Between days six and eleven after induction, rats in each respective group were subdermally injected with the liposomal preparation described in Example 2 (emulsified in phosphate saline solution, pH 7.4), a positive control preparation of glatiramer acetate (GA; copaxone, Teva Pharmaceutical Industries Ltd, Israel), a prototype peptide: DENPVVIIFFKNIVTPRT (SEQ ID NO:5), or a buffered phosphate saline solution (pH 7.4) placebo. The peptide, Glatiramer acetate, and liposomal preparations were formulated immediately prior to administration using buffered phosphate saline solution (pH 7.4). 0.1 mL of each composition was administered daily at a concentration of 150 μg per animal.

glatiramer acetate [copaxone]
Mortality Rate (EAE-induced DA rats): 2/6 | Evaluation of EAE symptom intensity, average ([1]; day 0 after EAE induction): 0.00 | Evaluation of EAE symptom intensity, average ([1]; day 1 after EAE induction): 0.00 | Evaluation of EAE symptom intensity, average ([1]; day 2 after EAE induction): 0.00 | Evaluation of EAE symptom intensity, average ([1]; day 3 after EAE induction): 0.00 | Evaluation of EAE symptom intensity, average ([1]; day 4 after EAE induction): 0.00 | Evaluation of EAE symptom intensity, average ([1]; day 5 after EAE induction): 0.00 | Evaluation of EAE symptom intensity, average ([1]; day 6 after EAE induction): 0.00 | Evaluation of EAE symptom intensity, average ([1]; day 7 after EAE induction): 0.00 | Evaluation of EAE symptom intensity, average ([1]; day 8 after EAE induction): 0.50 | Evaluation of EAE symptom intensity, average ([1]; day 9 after EAE induction): 1.67 | Evaluation of EAE symptom intensity, average ([1]; day 10 after EAE induction): 2.17 | Evaluation of EAE symptom intensity, average ([1]; day 11 after EAE induction): 2.25 | Evaluation of EAE symptom intensity, average ([1]; day 12 after EAE induction): 2.25 | Evaluation of EAE symptom intensity, average ([1]; day 13 after EAE induction): 2.83 | Evaluation of EAE symptom intensity, average ([1]; day 14 after EAE induction): 2.75 | Evaluation of EAE symptom intensity, average ([1]; day 15 after EAE induction): 2.33 | Evaluation of EAE symptom intensity, average ([1]; day 16 after EAE induction): 2.08 | Evaluation of EAE symptom intensity, average ([1]; day 17 after EAE induction): 2.17 | Evaluation of EAE symptom intensity, average ([1]; day 18 after EAE induction): 2.17 | Evaluation of EAE symptom intensity, average ([1]; day 19 after EAE induction): 1.75 | Evaluation of EAE symptom intensity, average ([1]; day 20 after EAE induction): 1.67 | Evaluation of EAE symptom intensity, average ([1]; day −1 after EAE induction): 0.00
